Data from patent US20080167532A1, “ASSESSING CANCER TREATMENT RESPONSIVENESS” (Mayo Foundation for Medical Education and Research, priority 2006, published 2008).
“Also recorded” adds a separate entry of the source.

How the values were obtained:
Assay type in all cases: cell-based, human
[1] = test system: DRO cells; experiment: Affymetrix Plus 2.0 array, nucleic acid expression in DRO cells in cell culture; details: 10 nM single dose
Protocol: Affymetrix Plus 2.0 arrays were used to identify nucleic acids altered between control vehicle-treated and RS5444-treated ATC cells from cell culture and tumors implanted ectopically into athymic nude mice. Cells in culture were treated with a single dose of 10 nM RS5444 for either 2, 6, or 24 hours. Animals were treated with 0.025% RS5444 after implantation of 1×10^6 DRO cells. Animals were fed a diet including 0.025% RS5444 for 35 days, and tumor volume was measured weekly. Tumor tissues were removed, RNA was isolated, and nucleic acid expression was analyzed. Examples of some nucleic acids, the expression of which was altered in both the animal derived tumors and cells in culture, are presented in Table 1. Some of the nucleic acids regulated by PPARγ in ATC cells (e.g., BMP2, MMP14, ANGPTL4, and ITGA5) are secreted polypeptides (Table 1).

[2] = test system: DRO cells; experiment: Real-time PCR of RhoB and p21 RNA in DRO cells; details: 10 nM vs DMSO, time course
Protocol: Experiments also were conducted to examine the expression of RhoB in response to treatment with a PPARγ agonist. Cells from the human ATC cell line, DRO, were treated at various time points during 48 hours with DMSO control (0.1%) or 10 nM RS5444. RhoB and p21^WAF1/CIP1 RNA levels were measured using real-time PCR. Data were normalized to DMSO untreated controls for each time point measured.
Total mRNA was isolated from cells using RNAqueous (Ambion) per the manufacturer's protocol followed by ethanol precipitation. Total RNA from normal thyroid tissue was extracted using TOTALLY RNA (Ambion) according to manufacturer's protocol followed by Chroma Spin Column 100 (BD Bioscience). Two-step quantitative reverse transcriptase-mediated real-time PCR (QPCR) was used to measure changes in mRNA levels of target genes in ATC cells. Total RNA was reverse transcribed using the High-Capacity cDNA Archive kit (Applied Biosystems) per the manufacturer's instructions. […] Forty amplification cycles were performed on the Applied Biosystems Prism 7900 sequence detector, with cycle threshold (Ct) values calculated using the Sequence Detection System software (SDS 2.2.2. Applied Biosystems) normalized against 18S rRNA levels. Fold change values either between treated (RS5444) and control samples were calculated using the ΔΔCt method (Livak and Schmittgen, Methods, 25:402-408 (2001)).

[3] = test system: DRO cells; experiment: Western blot of RhoB, RhoA, p21, cyclin E polypeptides in DRO cells
Protocol: RhoB and p21^WAF1/CIP1 polypeptide expression also was examined in ATC cells to determine the time course of induction of each polypeptide following stimulation with a PPARγ agonist (FIG. 6). […]. Polypeptide lysates were prepared and examined for RhoB, RhoA and β-actin expression. […]; FIG. 6A).
The time course for induction of RhoB and p21^WAF1/CIP1 was determined using Western blotting.
DRO90-1 (DRO) and ARO81 (ARO) cells were derived from primary cultures of human anaplastic thyroid carcinoma tumors that were obtained from Dr. G. J. Juillard (University of California-Los Angeles, Los Angeles, Calif.), and KTC-2 and KTC3 cells were obtained from Dr. Junichi Kurebayashi (Podtcheko et al., J. Clin. Endocrinol. Metab., 88:1889-1896 (2003) and Pushkarev et al., Molecular mechanisms of the Effects of Low Concentrations of Taxol in Anaplastic Thyroid Cancer Cells. Endocrinology: en. 2004-0127 (2004)). Cells were cultured in RPMI 1640 medium (Cellgro, Herndon Va.) supplemented with 10% charcoal-stripped fetal bovine serum (Hyclone), non-essential amino acids, sodium pyruvate, and penicillin-streptomycin-amphotericin B at 37° C. in a humidified atmosphere with 5% CO^2. Charcoal-stripped serum was used to exclude endogenous PPAR ligands contained in serum. For proliferation studies, cells were plated in triplicate in 12-well culture plates at initial concentrations of 2×10^4 cells/well. After overnight incubation, cells were treated with 10 nM RS5444 or DMSO diluent (Sigma) for 6 days with medium, and drug changed every 48 hours. After 6 days, cells were washed with PBS (Cellgro), trypsinized, and counted by Beckman Coulter Counter (Beckman Instruments, Fullerton Calif.). For morphology studies, cells were plated in 12 well plates at initial concentrations of 2.5×10^4 cells/well. Cells were treated with either DMSO or 10 nM RS5444 (24 hours). After treatment, phase images were obtained on an inverted microscope. For real time PCR studies, cells were plated in 60 mm plates at 50% confluence and treated with 10 nM RS5444 for indicated incubation periods. […].
Cells were collected and lysed in RIPA buffer containing 50 mM Tris, 5 mM EDTA, 150 mM NaCl, 0.1% SDS, 0.5% Deoxycholate, 1% NP40, and protease inhibitor cocktail (Roche) followed by centrifugation. Excised tumor tissues were lysed in 50 mM Tris pH 8.0+1% SDS. Collected supernatants were, analyzed for protein concentration using Pierce's BCA assay, with 25 μg protein loaded per gel lane (Invitrogen) with later transfer to Immobilon-P membranes. The membranes were hybridized with antibodies (Santa Cruz, Cell Signaling, Sigma-Aldrich, St. Louis Mo.) as indicated overnight at 4° C. followed by treatment with species-specific horseradish peroxidase IgG (Jackson labs) for 45 minutes at room temperature. Detection was performed using Supersignal West Pico chemoluminescence kit (Pierce). Quantification of bands was performed in triplicate using Image Quant 5.2 (Molecular Dynamics, Sunnyvale Calif.).

Cc1cc(Oc2ccc3nc(COc4ccc(CC5SC(=O)NC5=O)cc4)n(C)c3c2)cc(C)c1N (centres unmarked) [RS5444]
Fold change in vitro, ADRB1 ([1]; ADRB1, 2 h): −3.3 fold
Fold change in vitro, ADRB1 ([1]; ADRB1, 24 h): −2.2 fold
Fold change in vitro, ANGPTL4 ([1]; ANGPTL4, 2 h): 5.3 fold
Fold change in vitro, ANGPTL4 ([1]; ANGPTL4, 6 h): 4.9 fold
Fold change in vitro, ANGPTL4 ([1]; ANGPTL4, 24 h): 8.4 fold
Fold change in vitro, BMP2 ([1]; BMP2, 24 h): 2.5 fold
Fold change in vitro, HR ([1]; 2 h): 2 fold
Fold change in vitro, HR ([1]; 24 h): 2.3 fold
Fold change in vitro, IL1B ([1]; IL1B, 24 h): 14.2 fold
Fold change in vitro, ITGA5 ([1]; ITGA5, 24 h): 2.2 fold
Fold change in vitro, LMAN1 ([1]; LMAN1, 6 h): −2 fold
Fold change in vitro, MMP14 ([1]; MMP14, 2 h): 5.4 fold
Fold change in vitro, MMP14 ([1]; MMP14, 24 h): 16.9 fold
Fold change in vitro, RhoB ([1]; 2 h): 3.4 fold
Fold change in vitro, RhoB ([1]; 6 h): 4.1 fold
Fold change in vitro, RhoB ([1]; 24 h): 2.8 fold
RhoB mRNA levels (real-time PCR) [2]: RhoB mRNA induction as early as 2 hours; also recorded: significantly elevated at 12 hours through 48 hours
RhoA polypeptide expression (Western blot) ([3]; 10 nM RS5444): no change in RhoA polypeptide expression; also recorded: no change in RhoA polypeptide levels
Cyclin E levels (Western blot) ([3]; 10 nM, at 24 hours, not at earlier time points): down-regulated
RhoB polypeptide level, time course (Western blot) ([3]; 10 nM, up to 24 hours): significantly elevated at 6 hours
p21WAF1/CIP1 polypeptide level, time course (Western blot) ([3]; 10 nM, up to 24 hours): significantly elevated at 6 hours
RhoB polypeptide levels (Western blot) ([3]; 24 hours after single treatment, 10 nM RS5444, 100 nM rosiglitazone, 1 μM troglitazone): induced most strongly; also recorded: induced RhoB polypeptide levels
RhoB and p21 expression (Western blot) ([3]; 24 hours, 10 nM RS5444, 1 ng/mL FK-228, 10 μM FTI-277): upregulation of both RhoB and p21 expression
